Measurements reported in ChEMBL document CHEMBL2429725, “New chemotypes for wALADin1-like inhibitors of delta-aminolevulinic acid dehydratase from Wolbachia endobacteria” (Bioorg Med Chem Lett, 2013).
The source made the active and inactive calls. The calls are words filed in the database; no cut-off is given here.

Legend:
[1] = target: T1, Delta-aminolevulinic acid dehydratase (Homo sapiens) (UniProt P13716); experiment: (§1) Inhibition of human ALADH after 20 mins
T1 sequence (whole entry): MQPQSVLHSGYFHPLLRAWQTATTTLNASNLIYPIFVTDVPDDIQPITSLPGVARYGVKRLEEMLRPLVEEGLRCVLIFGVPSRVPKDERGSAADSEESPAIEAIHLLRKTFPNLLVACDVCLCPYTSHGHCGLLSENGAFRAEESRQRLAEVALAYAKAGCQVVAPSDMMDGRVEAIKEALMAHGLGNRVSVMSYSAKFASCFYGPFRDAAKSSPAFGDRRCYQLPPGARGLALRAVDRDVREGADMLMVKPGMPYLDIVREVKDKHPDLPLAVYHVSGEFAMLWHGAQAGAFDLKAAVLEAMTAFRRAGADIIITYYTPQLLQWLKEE

Wolbachia [2] = experiment: (§2) Inhibition of recombinant Wolbachia endobacteria ALADH using 5-ALA as substrate after 20 mins
[3] = target: T2, Delta-aminolevulinic acid dehydratase (Homo sapiens, UniProt P13716); experiment: as §1
T2 sequence (P13716 whole entry): T1 sequence (whole entry)

[4] = as §2
Wolbachia [5] = experiment: Binding affinity to recombinant Wolbachia endobacteria assessed as change in melting temperature at 25 uM by thermal shift assay
Wolbachia [6] = experiment: Binding affinity to recombinant Wolbachia endobacteria assessed as change in melting temperature at 3.1 uM by thermal shift assay
Wolbachia [7] = experiment: Inhibition of recombinant Wolbachia endobacteria ALADH using 5-ALA as substrate after 20 mins relative to control
Wolbachia [8] = experiment: Binding affinity to recombinant Wolbachia endobacteria assessed as change in melting temperature at 6.25 uM by thermal shift assay
Wolbachia [9] = experiment: Binding affinity to recombinant Wolbachia endobacteria assessed as change in melting temperature at 100 uM by thermal shift assay
Wolbachia [10] = experiment: Non-competitive inhibition of recombinant Wolbachia endobacteria ALADH using 5-ALA as substrate
Wolbachia [11] = experiment: Binding affinity to recombinant Wolbachia endobacteria assessed as change in melting temperature at 1.6 uM by thermal shift assay
Wolbachia [12] = experiment: Non-competitive inhibition of recombinant Wolbachia endobacteria ALADH using 5-ALA as substrate in presence of Mg2+
Wolbachia [13] = experiment: Binding affinity to recombinant Wolbachia endobacteria assessed as change in melting temperature at 12.5 uM by thermal shift assay

inhibition [1] | inhibition (Wolbachia [2]) | IC50 [4] | Compound | further results
inactive | inactive | – | CCn1c(CSc2nnc(-c3cccs3)n2Cc2ccccc2)nc2cc(C(=O)O)ccc21 | –
> 25% | – | – | O=C(O)c1ccc2c(c1)n(CCN1CCCC1)c(=O)n2Cc1ccc(F)cc1 | IC50 ([3]; read-out: IC50): > 1000 µM; IC50 ([4]; read-out: IC50): 340 µM
– | – | Not Active | O=C(O)c1c2c(nc3ccccc13)CCN(CC(O)c1ccccc1)C2 (stereo not given) | –
inactive | inactive | – | CC(NC(=O)Cc1ccccc1C(=O)O)C1Nc2ccccc2N1 (stereo not given) | –
> 25% | – | – | O=C(O)c1ccc2c(c1)n(Cc1ncccn1)c(=O)n2Cc1ccc(F)cc1 | IC50 ([3]; read-out: IC50): 119 µM; IC50 ([4]; read-out: IC50): > 1000 µM
– | – | – | O=C(O)c1c2c(nc3ccccc13)CCN(C(=O)c1cccc(C(F)(F)F)c1)C2 | ΔTm (Wolbachia [5]): 3 °C; ΔTm (Wolbachia [6]): 1.2 °C; inhibition (Wolbachia [7]): > 30%; IC50 [3]: Not Active; ΔTm (Wolbachia [8]): 1.9 °C; ΔTm (Wolbachia [9]): 5.5 °C; IC50 ([4]; read-out: IC50): 8.1 µM; inhibition (Wolbachia [10]): Active; ΔTm (Wolbachia [11]): 0.7 °C; inhibition (Wolbachia [12]): Active; ΔTm (Wolbachia [13]): 2.8 °C
– | – | Not Active | O=C(c1cccc(C(F)(F)F)c1)N1CCc2nc3ncccc3cc2C1 | –
inactive | inactive | – | CCn1c(CSc2ccc(NC(C)=O)cc2)nc2cc(C(=O)O)ccc21 | –
inactive | inactive | – | Cc1ccsc1C(=O)NCCc1ccc(C(=O)O)cc1 | –
inactive | inactive | – | Cn1c(CCNC(=O)c2cccs2)nc2cc([N+](=O)[O-])ccc21 | –
– | – | – | O=C(O)c1ccc2c(c1)nc(CCNC(=O)c1cccs1)n2Cc1cccc(C(F)(F)F)c1 | IC50 ([3]; read-out: IC50): 740 µM; IC50 ([4]; read-out: IC50): 11.1 µM
– | – | Not Active | O=C(O)c1c2c(nc3ccccc13)CCN(S(=O)(=O)c1ccccc1)C2 | –
inactive | inactive | – | O=C(O)c1ccc2c(c1)n(CC1CCNC1)c(=O)n2Cc1ccc(F)cc1 (stereo not given) | –
– | – | – | O=C(O)c1cc(-c2ccc(Br)cc2)cs1 | inhibition (Wolbachia [7]): > 30%; IC50 ([3]; read-out: IC50): 99.7 µM; IC50 ([4]; read-out: IC50): 299 µM
– | – | Not Active | CC(C)(C)C(=O)N1CCc2nc3ccccc3c(C(=O)O)c2C1 | –
inactive | inactive | – | O=C(N[C@@H](Cc1ccccc1)C(=O)O)c1cccs1 | –
– | – | – | O=C(O)c1cc(-c2ccc(Cl)cc2)cs1 | inhibition (Wolbachia [7]): > 30%; IC50 ([3]; read-out: IC50): 85.3 µM; IC50 ([4]; read-out: IC50): 521 µM
– | – | Not Active | O=C(O)c1c2c(nc3ccccc13)CCN(CC(O)COc1ccccc1)C2 (stereo not given) | –
– | – | Not Active | COc1ccc(S(=O)(=O)N2CCc3nc4ccccc4c(C(=O)O)c3C2)cc1 | –
– | – | Not Active | O=C(O)c1c2c(nc3ccccc13)CCN(Cc1ccccc1)C2 | –
inactive | inactive | – | O=C(O)CCNC(=O)C(Cc1ccccc1)NC(=O)c1cccs1 (stereo not given) | –

Compound | inhibition [1] | inhibition (Wolbachia [2]) | IC50 [4] | further results
CN1CCc2nc3ccccc3c(C(=O)O)c2C1 | – | – | Not Active | –
O=C(O)c1c2c(nc3ccccc13)CCNC2 | – | – | Not Active | –
